Reference: BindingDB's records for doi:10.1021/jm00053a022 (University of Paris, 1993)
Non-standard residues stand in square brackets, D forms with d. Residues, ends and D or L forms follow the SMILES beside them. *: point of attachment. NMeW = CN[C@@H](Cc1c[nH]c2ccccc12)C(=O)O; 1Nal = N[C@@H](Cc1cccc2ccccc12)C(=O)O; Chg = N[C@H](C(=O)O)C1CCCCC1; Phg = N[C@H](C(=O)O)c1ccccc1; OtBu = CC(C)(C)O*

How the values were obtained:
[1] = biological target: Gastrin/cholecystokinin type B receptor (Cavia porcellus); assay: Displacement of [3H]pCCK-8 from cholecystokinin type B receptor in guinea pig brain membrane
[2] = biological target: Gastrin/cholecystokinin type B receptor (Cavia porcellus); assay: as above; remark: listed apart in the source

SMILES	Ki [1]	Ki [2]
CC(C)(C)OC(=O)[C@H](Cc1c[nH]c2ccccc12)NC(=O)[C@H](Cc1ccccc1)NC(=O)[C@H](CC(=O)O)NC(=O)[C@@H](N)Cc1cccc2ccccc12 [3-(2-Amino-3-naphthalen-1-yl-propionylamino)-N-{1-[1-tert-butoxycarbonyl-2-(1H-indol-3-yl)-ethylcarbamoyl]-2-phenyl-ethyl}-succinamic acid] (H-[1Nal]DFW-OtBu)	71 nM	
CCCC[C@H](NC(=O)[C@H](CC(=O)O)NC(=O)[C@H](Cc1cccc2ccccc12)N(C)C)C(=O)N(C)[C@@H](Cc1c[nH]c2ccccc12)C(=O)OC(C)(C)C [N-(1-{[1-tert-Butoxycarbonyl-2-(1H-indol-3-yl)-ethyl]-methyl-carbamoyl}-pentyl)-3-(2-dimethylamino-3-naphthalen-1-yl-propionylamino)-succinamic acid]	81 nM	
CN(C(=O)[C@@H](NC(=O)[C@H](CC(=O)O)NC(=O)[C@@H](N)Cc1cccc2ccccc12)c1ccccc1)[C@@H](Cc1c[nH]c2ccccc12)C(=O)OC(C)(C)C [3-(2-Amino-3-naphthalen-1-yl-propionylamino)-N-({[1-tert-butoxycarbonyl-2-(1H-indol-3-yl)-ethyl]-methyl-carbamoyl}-phenyl-methyl)-succinamic acid] (H-[1Nal]D[Phg][NMeW]-OtBu)	170 nM	
CN(C)[C@@H](Cc1cccc2ccccc12)C(=O)N[C@@H](CC(=O)O)C(=O)N[C@H](C(=O)N[C@@H](Cc1c[nH]c2ccccc12)C(=O)OC(C)(C)C)C1CCCCC1 [N-{[1-tert-Butoxycarbonyl-2-(1H-indol-3-yl)-ethylcarbamoyl]-cyclohexyl-methyl}-3-(2-dimethylamino-3-naphthalen-1-yl-propionylamino)-succinamic acid]	74 nM	
CN(C)[C@@H](Cc1cccc2ccccc12)C(=O)N[C@@H](CC(=O)O)C(=O)N[C@H](C(=O)N[C@@H](Cc1c[nH]c2ccccc12)C(=O)OC(C)(C)C)c1ccccc1 [N-{[1-tert-Butoxycarbonyl-2-(1H-indol-3-yl)-ethylcarbamoyl]-phenyl-methyl}-3-(2-dimethylamino-3-naphthalen-1-yl-propionylamino)-succinamic acid]	39 nM	
CN(C(=O)[C@@H](NC(=O)[C@H](CC(=O)O)NC(=O)[C@@H](N)Cc1cccc2ccccc12)C1CCCCC1)[C@@H](Cc1c[nH]c2ccccc12)C(=O)OC(C)(C)C [3-(2-Amino-3-naphthalen-1-yl-propionylamino)-N-({[1-tert-butoxycarbonyl-2-(1H-indol-3-yl)-ethyl]-methyl-carbamoyl}-cyclohexyl-methyl)-succinamic acid] (H-[1Nal]D[Chg][NMeW]-OtBu)	140 nM	
CCCC[C@H](NC(=O)[C@H](CC(=O)O)NC(=O)[C@@H](N)Cc1ccccc1)C(=O)N[C@H](Cc1c[nH]c2ccccc12)C(=O)OC(C)(C)C [3-(2-Amino-3-phenyl-propionylamino)-N-{1-[1-tert-butoxycarbonyl-2-(1H-indol-3-yl)-ethylcarbamoyl]-pentyl}-succinamic acid]	160 nM	160 nM
